Data reported in patent US9464291B2, “Methods and compositions for the treatment of cancer” (University of South Alabama, priority 2012, dated 2016).
“Also recorded” adds a separate entry of the source.

Legend:
OPN = OPN expression in pre-osteoclastic RAW264.7 cells; format: cell-based, murine
Method: Western Blotting Analysis—Whole cell lysates were collected in NP-40 buffer (150 mM NaCl, 50 mM Tris, 1% NP-40). Total protein (30 μg) was resolved by SDS-PAGE gel and transferred to PVDF membranes. Membranes were immunoblotted overnight at 4° C. with antibodies to either SHH (Santacruz, Calif., USA) or IHH (Santacruz). Equal loading was confirmed with anti-β-tubulin (Cell Signaling, Danvers, Mass.). To assess OPN expression upon SHH treatment, […] were grown in 6-well plates in the presence of SHH. After 24 hours the cells were lysed in NP-40 buffer and 30 μg of each experimental group assessed by immunoblotting. To assess for the expression of OPN, MMP9 and CTSK, at the end of Day 6 of differentiation, all the different experimental groups were kept in serum free medium for 24 hrs and both, the conditioned media and whole cell lysates were collected and immunoblotted using antibodies to either anti-mouse OPN (Millipore, Bedford, Mass.), or CTSK (SantaCruz Biotech). Equal loading was confirmed with anti-β-actin (Sigma) antibody. Secreted MMP9 (Santa Cruz Biotech) was assessed by loading equal quantity of protein from the serum-free conditioned medium. […] Detection and quantification of proteins was done using Fuji LAS 3000 apparatus and Multigauge V3.1 software (Fujifilm, Valhalla, N.Y.). Band intensities were measured in arbitrary Units (AU). […]
Luciferase Assay—Cells were co-transfected with the OPN promoter construct, pGL3-OPNB and pSV-β-galactosidase (Promega) (Das, S., et al. (2009) J Biol Chem 284, 22888-22897). […] Readings were normalized to β-galactosidase. […]
Quantitative RT-PCR (qRT-PCR)-cDNA was generated using High Capacity Reverse Transcriptase Kit (Applied Biosystems, Foster City, Calif.). […] Following the experimental regime as described herein (for Osteoclast differentiation/activity) RNA was isolated using Trizol (Invitrogen) and assessed as describere herein. […]

c-fos = c-fos mRNA (semi-quantitative PCR) and protein in A2780-CP70 cells; format: cell-based, human
Shh, Ihh = test: Shh and Ihh protein levels in A2780-CP70 cells; format: cell-based, human; details: cyclopamine-treated
Method: SHH and IHH protein levels were assessed in cyclopamine-treated A2780-CP70 cells by Western blot analysis. Referring to FIG. 28, SHH protein (51 kDa) was detected in cytoplasmic fractions, but not nuclear fractions of treated cells at 0 hr. […] At 48 hr, SHH protein levels were prominent in cytoplasmic and nuclear fractions, and remained prominent through 72 hr. Referring to FIG. 29, IHH protein (45 kDa) was detected in cytoplasmic and nuclear fractions of treated cells at 0 hr. At 6 hr, IHH protein levels were more prominent in nuclear fractions than in cytoplasmic fractions. At 24 hr, IHH protein levels were low in both nuclear and cytoplasmic fractions. However, at 48 hr IHH protein levels increased in nuclear fractions through to 72 hr. IHH was only weakly present in the cytoplasmic fractions between 48-72 hr. […] After 24 hr SHH and IHH protein levels were similar in nuclear and cytoplasmic fractions. SHH and IHH protein levels rebounded by 48 hr and 72 hr.
The effects of an IC50 dose of anti-Gli1 shRNA on cisplatin-sensitive A2780 cells and cisplatin-resistant A2780-CP70 cells were assessed. Cisplatin-sensitive A2780 cells and cisplatin-resisitant A2780-CP70 cells were treated with 2.0 μg/ml shRNA per 200 microliter well anti-Gli1 shRNA. Protein levels of Gli1, Gli2, c-jun, Shh, Ihh, and GAPDH (control) were measured. […]

[1] = system: c-jun (Ser 63, Ser 73, Thr 91, Thr 93); test: c-jun protein phosphorylation, Western blot, A2780-CP70 cells; format: cell-based, human; details: 72 hr observation
Method: Protein levels for c-jun, c-fos, phosphorylated c-jun (Ser 63), phosphorylated c-jun (Ser 73), and phosphorylated c-jun (Thr 91, Thr 93) were tested in cytosolic, nuclear, and whole cell fractions at 0 hr, 6 hr, 24 hr, 48 hr, and 72 hr. Internal controls for cytosolic and nuclear fractions included α-tubulin and histone deacetylase 3.
Phosphorylation of c-jun in A2780-CP70 cells transfected with anti-GLI1 shRNA construct was assessed using Western blot analysis. Protein levels for c-jun, phosphorylated c-jun (Ser 63), phosphorylated c-jun (Ser 73), and phosphorylated c-jun (Thr 91, Thr 93) were examined at 0 hr, 6 hr, 24 hr, 48 hr, and 72 hr.
A2780-CP70 cells were treated with an IC50 dose of cisplatin and an IC50 dose of anti-Gli1 shRNA.

SHH: recombinant Sonic hedgehog ligand (R & D Systems)
OPN protein levels (OPN; 24 hours post SHH): increased protein levels of OPN | OPN promoter activity (OPN; 24 hours post-SHH): increase in the activity of the OPN promoter | OPN mRNA levels (OPN; recombinant SHH): dose-dependent significant (p<0.0001) increase in OPN mRNA levels

CC1=C2C[C@H]3[C@@H](CC=C4C[C@@H](O)CC[C@@]43C)[C@@H]2CC[C@]12O[C@@H]1C[C@H](C)CN[C@H]1[C@H]2C [cyclopamine]
c-fos mRNA peak level (c-fos; 70 μM cyclopamine, vs 0 hr): 27 fold | c-fos protein level (c-fos; A2780-CP70, cyclopamine-treated): increased substantially at 6 hr | SHH and IHH protein levels (Shh, Ihh): reduced at 24 hr | c-jun phosphorylation at Ser63 [1]: no phosphorylation occurred at Ser63; also recorded: no substantial expression was detected; also recorded: not observed | c-jun phosphorylation at Thr91/93 [1]: peak levels at 6 hr
